Molecular target: thioredoxin reductase (TrxR, TVAG_474980) (Trichomonas vaginalis, UniProt A0A8U0WQ27)
Assay: DTNB reduction assay with NADPH, recombinant TrxR and Trx, absorbance at […] nm
Assay type: biochemical

Question: `CC(=O)OC[C@H]1O[C@@H]([S-])[C@H](OC(C)=O)[C@@H](OC(C)=O)[C@@H]1OC(C)=O.CCP(CC)CC.[Au+]` [AF, auranofin] was tested. Which IC50 did it give?
Answer: 85 nM
